Experimental data as given in patent US20070027175A1, “Antineoplastic activities of ellipticine and its derivatives” (priority 2005, published 2007).

Assays:
Assay type in all cases: cell-based, human
U266 cells [1] = assay: Flow cytometry apoptosis (Annexin V-FITC/7-AAD); conditions: 12 hours, EPED3 2 μM, Velcade 0.5 μM
Procedure: (§1) FIGS. 14A-14L show flowcytometry analyses of cell viability and cell cycle arrest under EPED3 and Velcade treatments. U266 cells were co-cultured without contact with human fetal bone mesenchymal cells. Cells were untreated (Control; FIGS. 14A, 14D, 14G, 14J) or exposed to […] (FIGS. 14B, 14E, 14H, 14K) or […] (FIGS. 14C, 14F, 14I, 14L) for 12 hours and then harvested. Pan-caspase inhibitor Z-VAD-FMK ([…]) was also added to co-cultures (FIGS. 14D-14F and FIGS. 14J-14L) to block caspase-dependent apoptosis and then analyzed for cell cycling arrest. Percent cells in G0+G1 and G2+M phases were measured by the peaks of DNA helix and are gated with each graph (FIGS. 14A-14F). Percent cells with fragmented DNA are indicated as c % in each graph. Cells were also analyzed for apoptotic status (FIGS. 14G-14L) using Coulter Annexin-V FITC/7-AAD kit. Untreated cells (Control; FIGS. 14G and 14J) were maintained at high viability (90%). Early apoptotic cells were gated at G4, and necrotic cells were gated at G2; percent cells in each population are indicated with each graph. The arrows indicate percent viable cells ingested EPED3, whose fluorescent property was captured at channel FL4 (FIGS. 14H, 14K).
Apoptosis was detected using the Annexin V-fluorescein isothiocyanate (FITC)/7-AAD kit (Beckman Coulter, Inc.). Myeloma cells were harvested from co-culture inserts and washed in PBS; 5×10^5 cells were incubated on ice with 100 μl of binding buffer (10 μl Annexin V-FITC and 20 μl of 7-AAD) for 15 minutes. Samples were analyzed using EPICS XL-MCL flowcytometer equipped with EXPO32 ADC software (Beckman Coulter, Inc.).
(§2) To investigate the effects of EPED3 on apoptosis and cell cycle arrest of myeloma cells, U266 cells were exposed to EPED3 (2 μM) or Velcade (0.5 μM) in co-culture without direct contact with fetal human bone mesenchymal cells. Twelve hours after treatment, cells were harvested for using flow cytometry to detect ongoing apoptosis and cell cycle arrest.

U266 cells [2] = assay: Flow cytometry cell cycle arrest (DNA-Prep); conditions: 12 hours; EPED3 2 μM, Velcade 0.5 μM
Procedure: as §1
Cell cycle arrest was measured using DNA-Prep Coulter Reagents kit (Beckman Coulter, Inc., Miami, Fla.). Myeloma cells were harvested from co-culture inserts and washed in phosphate buffered saline (PBS); 5×10^5 cells were stained according to the manufacturer's instructions. Samples were analyzed using EPICS XL-MCL flowcytometer equipped with EXPO32 ADC software (Beckman Coulter, Inc.).
as §2
The cell cycle arrest analysis was simultaneously performed to examine DNA helix in U266 cells at 12 hours. […] Furthermore, 7.2% of the EPED3-treated population was in G2+M phase as opposed to 25.4% of the control and 18.9% of Velcade-treated populations in the G2+M phase (FIG. 14A-14C).

U266 cells [3] = assay: MTT dose response to anti-myeloma agents, U266; conditions: 24 and 48 hours
Procedure: FIGS. 12A-12B show dose response of myeloma cells to common anti-myeloma agents used in clinics. U266 was one of 4 myeloma cell lines exposed to a panel of anti-myeloma agents in 2-fold titration ([…]). MTT assays were performed to assess cell proliferation inhibition for 24 hours (FIG. 12A) and 48 hours (FIG. 12B). […] Error bars indicate standard deviation.
Myeloma cells were suspended in fresh medium at […] and seeded into 96-well plates in 50-μl aliquots (10,000 cells/well). After treating cells in each well with the appropriate compound (50-μl aliquots of 2× stock solution) and medium control, the methylthiazolyldiphenyl-tetrazolium bromide (MTT) assay kit (Promega, Madison, Wis.) was used to determine cell proliferation, according to manufacturer's instructions. Briefly, dye solution was added to each well (15 μl/well) and incubated for 4 hours at 37° C. and 5% CO2; 100 μl of the solubilization solution/stop mix was then added. The plates were read at 570 nm in a plate reader, and the A570 nm values were corrected by A650 nm. All experiments were conducted in triplicate.
In vitro comparison of EPED3 to ellipticine and four anti-myeloma agents commonly used in clinical treatment regimens was carried out with four myeloma cell lines (JJN3, L363, OCI-MY5, and U266). EPED3, ellipticine, Dox, dexamethasome, VP-16-213, and Velcade were applied in a two-fold dilution series ranging from 0.1 to 6.4 μM. Cell proliferation was assessed using MTT assays 24 and 48 hours after initiating treatments.

[4] = co-culture without direct contact
[5] = with pan-caspase inhibitor Z-VAD-FMK

Structure (SMILES)	apoptotic cells (U266 cells [1]; [4]) [%]	necrotic cells (U266 cells [1]; [4]) [%]	apoptotic cells (U266 cells [1]; [5]) [%]	necrotic cells (U266 cells [1]; [5]) [%]	population in G0+G1 phase (U266 cells [2]) [%]	population in G2+M phase (U266 cells [2]) [%]	concentration with better efficacy on reduction of cell metabolic activity (U266 cells [3]; U266) [µM]	concentration at which cell proliferation stopped (U266 cells [3]; U266, MTT) [µM]	concentration of efficient killing of U266 cells (U266 cells [3]; without co-culture, MTT)
Cc1c2ccncc2c(C)c2c1[nH]c1ccc(OCCN(C)C)cc12 [NSC 338258, ellipticine, 9-dimethyl amino-ethoxy-]	36	9.7	8.9	18.9	67.5	7.2	≥ 0.4	0.2	
CC(C)C[C@H](NC(=O)[C@H](Cc1ccccc1)NC(=O)c1cnccn1)B(O)O [Velcade, bortezomib, reference compound]	20.6	31.3	25	2.8	59.8	18.9			less than 0.1 μM
